In patent US20050282154A1 (priority 2003, published 2005):

How the values were obtained:
[1] = test system: SARS-CoV S protein-expressing 293 T cells and ACE-2-expressing 293 T cells; type: cell-based, human
[2] = test system: S1 domain of the SARS-CoV S protein; type: binding

Q: How did the “blocking of syncytia formation mediated by the SARS-CoV S protein” value [1] turn out when soluble ACE-2 was run?
A: Its value is “partially blocked”.

Q: And the “blocking of association of S1-Ig (S1 domain) with Vero E6 cells” value [2]?
A: The value was “blocked association”.
